This note sets out measurements from paper PMC7933130 (Nature, 2021).

This assay has as its target NaCT (Homo sapiens, UniProt Q86YT5). The assay can be described thus: cryo-EM structure at […] Å. The class given is binding.

Sequence of NaCT (Q86YT5 whole entry): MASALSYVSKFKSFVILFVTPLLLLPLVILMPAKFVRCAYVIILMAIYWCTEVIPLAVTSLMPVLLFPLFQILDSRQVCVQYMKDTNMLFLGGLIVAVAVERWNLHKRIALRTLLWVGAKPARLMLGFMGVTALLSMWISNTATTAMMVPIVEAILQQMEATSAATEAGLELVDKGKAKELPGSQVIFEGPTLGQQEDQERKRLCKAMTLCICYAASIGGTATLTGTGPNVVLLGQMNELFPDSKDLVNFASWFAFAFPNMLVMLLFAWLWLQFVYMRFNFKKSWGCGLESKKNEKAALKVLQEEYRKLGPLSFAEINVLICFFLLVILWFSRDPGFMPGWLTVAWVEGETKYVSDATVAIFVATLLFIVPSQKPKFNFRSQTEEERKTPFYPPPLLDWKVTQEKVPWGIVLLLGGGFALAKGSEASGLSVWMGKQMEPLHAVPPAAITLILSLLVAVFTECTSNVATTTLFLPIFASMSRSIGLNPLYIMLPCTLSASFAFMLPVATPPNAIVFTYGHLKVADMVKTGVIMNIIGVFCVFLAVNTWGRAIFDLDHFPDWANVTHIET

For `O=C(O)CC(O)(CC(=O)O)C(=O)O` [citrate], binding was put at a Kd of 148 ± 28 µM.
